Patent US20210292272A1, “Salts of Zuclomiphene” (Apotex Inc., priority 2020, published 2021)

How the values were obtained:
[1] = PXRD study of crystalline form stability of uncapped samples in a 40° C./75% RH stability chamber; type: physicochemical; settings: at least 4 weeks
Method: PXRD diffractograms were recorded on a Bruker-AXS D8 Discover powder X-ray diffractometer (Bruker-AXS, Karlsruhe, Germany). The X-rays were generated using an Incoatec Micro-focus X-ray source (IpSTube: Cu tube with λ=1.54060 Å) with a voltage of 50 kV and current of 1.00 mA, using a micro mask 0.3 mm plug-in pinhole microslit and a short UBC 45 mm long collimator with a 0.3 mm diameter. For each sample, one frame was collected using a still scan with a Pilatus 3R-100K-A area detector at the distance of 154.72 mm from the sample. Raw data were evaluated using the program DIFFRAC.EVA (Bruker-AXS, Karlsruhe, Germany).

[2] = Intrinsic dissolution rate (IDR) measurement, Wood apparatus; type: physicochemical; settings: 900 mL distilled water, 37° C., 50 rpm
Method: Intrinsic dissolution rate (IDR) measurements were performed using a Wood apparatus (Pharma Test PT-DT8 instrument) having a bath temperature of 37° C. Samples were prepared by compressing 200-400 mg samples at 1.5 metric tons for 1 minute. A dissolution medium consisting of 900 mL distilled water, and rotation speed of 50 rpm, was used for each experiment.

[3] = system: Men with Prostate Cancer on Androgen Deprivation Therapy; settings: 50 mg of zuclomiphene citrate, interim Phase 2 results; cited from earlier work

zuclomiphene tosylate [zuclomiphene tosylate Form APO-I]
change in the crystalline form (PXRD) [1]: no change in the crystalline form occurred

zuclomiphene L-malate [zuclomiphene L-malate Form APO-I]
IDR (intrinsic dissolution rate) [2]: 3.75 mg min^−1 cm^−2 | change in the crystalline form (PXRD) [1]: no change in the crystalline form occurred

zuclomiphene L-tartrate [zuclomiphene L-tartrate Form APO-I]
IDR (intrinsic dissolution rate) [2]: 2.37 mg min^−1 cm^−2 | change in the crystalline form (PXRD) [1]: no change in the crystalline form occurred

zuclomiphene fumarate [zuclomiphene fumarate Form APO-I]
change in the crystalline form (PXRD) [1]: no change in the crystalline form occurred

zuclomiphene citrate
moderate to severe hot flashes, change from baseline [3]: statistically significant decrease

zuclomiphene phosphate [zuclomiphene phosphate Form APO-I]
change in the crystalline form (PXRD) [1]: no change in the crystalline form occurred

zuclomiphene sulphate [zuclomiphene sulphate Form APO-I]
change in the crystalline form (PXRD) [1]: no change in the crystalline form occurred

zuclomiphene succinate [zuclomiphene succinate Form APO-I]
change in the crystalline form (PXRD) [1]: no change in the crystalline form occurred
